Calls of active or inactive are those of the source.
How the values were obtained:
[1] = biological target: T1, Carboxy-terminal domain RNA polymerase II polypeptide A small phosphatase 1 (Homo sapiens, UniProt Q9GZU7); experiment: CTDSP1 inhibitors, concentration-response, biochemical, absorbance readout, ultra-high-throughput screen actives (AID 540297); type: functional
T1 sequence (Q9GZU7 whole entry): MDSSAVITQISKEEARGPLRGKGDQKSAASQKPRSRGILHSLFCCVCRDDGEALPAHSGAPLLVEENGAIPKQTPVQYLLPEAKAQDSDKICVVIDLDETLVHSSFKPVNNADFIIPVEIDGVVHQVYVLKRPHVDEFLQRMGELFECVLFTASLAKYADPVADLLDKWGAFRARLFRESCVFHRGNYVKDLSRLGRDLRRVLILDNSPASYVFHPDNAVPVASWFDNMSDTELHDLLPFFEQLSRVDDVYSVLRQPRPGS

Streptococcus = experiment: GAS UMAA2166 growth inhibition – luminescence, BacTiterGlo, counter-screen for streptokinase expression inhibitor project, dose response (AID 1915); type: functional, organism-based;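 also: potency for reduction of bacterial viability or growth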
Streptokinase A = biological target: T2, Streptokinase A (Streptococcus pyogenes serotype M1, UniProt P10520); experiment: viability-normalized secreted streptokinase activity reduction – plasminogen activation absorbance, OD405, dose response (AID 1914); type: functional, Streptococcus pyogenes M1 GAS;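 also: secreted streptokinase activity via plasminogen activation per viability signal from cell pellet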
T2 sequence (P10520 whole entry): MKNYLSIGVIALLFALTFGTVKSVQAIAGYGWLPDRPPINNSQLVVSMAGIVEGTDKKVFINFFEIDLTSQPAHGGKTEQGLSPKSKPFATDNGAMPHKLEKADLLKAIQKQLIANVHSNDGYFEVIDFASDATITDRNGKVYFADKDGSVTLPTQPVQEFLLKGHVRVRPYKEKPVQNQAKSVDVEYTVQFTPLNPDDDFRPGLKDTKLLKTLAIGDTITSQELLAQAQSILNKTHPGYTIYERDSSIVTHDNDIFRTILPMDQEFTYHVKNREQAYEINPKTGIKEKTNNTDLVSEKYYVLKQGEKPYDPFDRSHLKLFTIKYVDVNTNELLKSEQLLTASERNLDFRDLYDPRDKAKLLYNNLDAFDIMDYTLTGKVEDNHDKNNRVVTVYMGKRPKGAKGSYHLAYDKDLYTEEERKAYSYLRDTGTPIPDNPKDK

Vero = experiment: cells; type: functional; settings: Chlorocebus sabaeus
[2] = tested on: Streptococcus sp. 'group A'; experiment: Streptococcus pyogenes SK(-)GAS viability under kanamycin – luminescence, BacTiterGlo, confirmation, counter-screen for streptokinase expression inhibitor project, dose response (AID 1900); type: functional, organism-based
cells [3] = type: functional, cell-based
cells [4] = type: functional, cell-based; remark: listed apart in the source
BJ [5] = experiment: BJ-TERT fibroblast viability loss – cell-based, RAS-independent, luminescence, dose response (AID 1933); type: functional; settings: Homo sapiens
[6] = DRD fibroblast viability loss – cell-based, non-viral oncogenic, luminescence, dose response (AID 1934); type: functional; settings: Homo sapiens
BJ [7] = experiment: BJ-TERT-LT-ST fibroblast viability loss – cell-based, RAS-independent, luminescence, dose response (AID 1935); type: functional; settings: Homo sapiens;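 also: BJ fibroblasts immortalized with TERT plus LT and ST oncogenes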
BJ [8] = experiment: cells; type: functional, cell-based; settings: Homo sapiens
[9] = HEK-293T cell viability reduction – luminescence, B-cell screen hits, cytotoxicity control for BCR NF-kB inhibitor project, dose response (AID 489021); type: functional, cell-based;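 also: HEK-293T cells carrying an NF-kB luciferase reporter; cells exposed to compound for about 14 hours before viability readout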
[10] = biological target: Heat shock protein HSP 90-alpha (Homo sapiens, UniProt P07900); type: functional, organism-based
[11] = biological target: T3, Trace amine-associated receptor 1 (Homo sapiens, UniProt Q96RJ0); experiment: Fluorescence-based cell-based high throughput dose response assay to identify agonists of the human trace amine associated receptor 1 (TAAR1).; type: functional
T3 sequence (Q96RJ0 whole entry): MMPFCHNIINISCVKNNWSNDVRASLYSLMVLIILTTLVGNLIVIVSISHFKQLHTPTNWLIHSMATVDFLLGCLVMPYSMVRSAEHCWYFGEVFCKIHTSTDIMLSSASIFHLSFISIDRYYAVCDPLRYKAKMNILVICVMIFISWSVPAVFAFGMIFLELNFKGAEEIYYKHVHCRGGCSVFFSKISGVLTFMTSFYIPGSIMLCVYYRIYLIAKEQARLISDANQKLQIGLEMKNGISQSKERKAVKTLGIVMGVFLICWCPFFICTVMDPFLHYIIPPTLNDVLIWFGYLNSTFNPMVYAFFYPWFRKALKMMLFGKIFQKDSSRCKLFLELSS

cells [12] = type: functional, cell-based; remark: listed apart in the source
[13] = biological target: T3, Trace amine-associated receptor 1; experiment: Counterscreen for agonists of the human trace amine associated receptor 1 (hTAAR1): Fluorescence-based cell-based high throughput dose response assay to identify hTAAR1 agonist that also desensitize TAAR1 receptor response.; type: functional
cells [14] = type: functional, cell-based; remark: listed apart in the source
[15] = NIH3T3 cell viability loss – ATP luminescence, mouse fibroblasts, counter-screen, dose response (AID 2010); type: functional, cell-based;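 also: cells exposed to compound for about 90 hours before reading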
[16] = Trypanosoma cruzi growth suppression in host cells – NIH3T3 host cells, beta-gal luminescence, confirmation (AID 2044); type: functional, cell-based;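 also: intracellular parasites grown in NIH/3T3 mouse fibroblasts as host cells; luminescent beta-galactosidase reporter signal from transgenic T. cruzi replicating inside host cells; inhibitors lower the luminescence signal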
[17] = biological target: Induced myeloid leukemia cell differentiation protein Mcl-1 (Homo sapiens, UniProt Q07820); type: functional
Chain of Induced myeloid leukemia cell differentiation protein Mcl-1 (Q07820 whole entry): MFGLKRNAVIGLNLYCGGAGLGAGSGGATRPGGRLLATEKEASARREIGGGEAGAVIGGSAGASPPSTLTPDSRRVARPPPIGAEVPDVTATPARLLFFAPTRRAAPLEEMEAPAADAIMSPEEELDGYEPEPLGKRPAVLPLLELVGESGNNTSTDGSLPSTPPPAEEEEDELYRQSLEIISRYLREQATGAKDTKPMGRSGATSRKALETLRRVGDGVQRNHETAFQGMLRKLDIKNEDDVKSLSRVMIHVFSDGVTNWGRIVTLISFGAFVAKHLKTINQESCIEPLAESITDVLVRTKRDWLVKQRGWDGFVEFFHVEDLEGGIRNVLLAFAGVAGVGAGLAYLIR

[18] = viability of uninfected HEp-2 cells – cell-based, HTS, cytotoxicity control for RSV inhibitor project, dose response (AID 2410); type: functional; settings: human respiratory syncytial virus
Large T antigen = Large T antigen (Simian virus 40, UniProt P03070); type: functional, Betapolyomavirus macacae;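 also: Confirmatory-stage PubChem screen for compounds that inhibit SV40 T antigen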
Chain of Large T antigen (P03070 whole entry): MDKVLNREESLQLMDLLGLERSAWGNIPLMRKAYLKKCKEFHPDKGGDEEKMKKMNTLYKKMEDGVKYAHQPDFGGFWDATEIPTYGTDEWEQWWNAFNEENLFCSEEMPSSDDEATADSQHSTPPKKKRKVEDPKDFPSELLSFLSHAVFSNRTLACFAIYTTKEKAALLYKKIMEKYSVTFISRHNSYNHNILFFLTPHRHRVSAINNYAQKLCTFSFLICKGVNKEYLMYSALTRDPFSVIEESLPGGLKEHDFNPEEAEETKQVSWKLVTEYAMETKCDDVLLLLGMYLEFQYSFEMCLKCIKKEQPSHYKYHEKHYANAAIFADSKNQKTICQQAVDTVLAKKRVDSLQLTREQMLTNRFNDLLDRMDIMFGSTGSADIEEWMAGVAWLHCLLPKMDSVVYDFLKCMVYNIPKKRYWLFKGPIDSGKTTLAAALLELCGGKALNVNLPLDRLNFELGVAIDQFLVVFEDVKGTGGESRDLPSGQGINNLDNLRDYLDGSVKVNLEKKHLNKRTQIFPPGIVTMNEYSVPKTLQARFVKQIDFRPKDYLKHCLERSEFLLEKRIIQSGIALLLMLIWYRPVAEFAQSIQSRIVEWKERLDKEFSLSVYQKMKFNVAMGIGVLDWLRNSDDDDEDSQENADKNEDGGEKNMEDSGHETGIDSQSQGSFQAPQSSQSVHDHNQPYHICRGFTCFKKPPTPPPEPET

Caspase-6 = biological target: T4, Caspase-6 (Homo sapiens, UniProt P55212); experiment: inhibition of CASP6 peptide cleavage – biochemical, VEID-R110 fluorescence, cherry-pick, dose response (AID 720632)
T4 sequence (P55212 whole entry): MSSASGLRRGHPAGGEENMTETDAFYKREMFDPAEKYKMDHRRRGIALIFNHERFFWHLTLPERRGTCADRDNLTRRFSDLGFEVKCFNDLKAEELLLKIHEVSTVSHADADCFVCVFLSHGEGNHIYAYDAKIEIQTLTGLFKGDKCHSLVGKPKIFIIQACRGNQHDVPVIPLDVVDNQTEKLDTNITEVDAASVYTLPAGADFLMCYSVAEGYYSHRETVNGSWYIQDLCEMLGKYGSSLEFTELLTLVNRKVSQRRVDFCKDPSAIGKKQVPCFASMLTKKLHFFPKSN

[19] = Luminescence Cell-Based Dose Confirmation HTS to Identify Inhibitors of Platelet Dense Granule Release. [Related pubchem assays: 1663 (Primary HTS), 1678 (Summary of Project)]; type: functional
[20] = biological target: Luciferin 4-monooxygenase (Photinus pyralis, UniProt P08659); experiment: inhibition of purified Photinus pyralis luciferase – biochemical, luminescence, dose response (AID 1891)
Chain of Luciferin 4-monooxygenase (P08659 whole entry): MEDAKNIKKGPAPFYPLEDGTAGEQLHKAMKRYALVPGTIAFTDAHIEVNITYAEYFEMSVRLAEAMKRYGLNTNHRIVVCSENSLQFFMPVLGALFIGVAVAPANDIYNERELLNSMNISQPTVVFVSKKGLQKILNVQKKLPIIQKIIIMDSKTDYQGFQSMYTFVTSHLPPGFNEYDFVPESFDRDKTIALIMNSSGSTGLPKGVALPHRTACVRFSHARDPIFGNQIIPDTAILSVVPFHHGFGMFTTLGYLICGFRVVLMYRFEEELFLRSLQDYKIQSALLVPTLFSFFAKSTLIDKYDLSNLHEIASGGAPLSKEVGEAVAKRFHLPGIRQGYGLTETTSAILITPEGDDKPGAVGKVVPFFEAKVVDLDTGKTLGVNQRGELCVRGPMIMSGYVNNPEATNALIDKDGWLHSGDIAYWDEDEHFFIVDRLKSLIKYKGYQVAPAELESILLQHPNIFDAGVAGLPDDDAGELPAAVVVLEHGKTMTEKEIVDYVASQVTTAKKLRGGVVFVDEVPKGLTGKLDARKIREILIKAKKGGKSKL

[21] = biological target: T5, Rac GTPase-activating protein 1 (Homo sapiens, UniProt Q9H0H5); experiment: blockers of MgcRacGAP-driven Rac1 GTP hydrolysis – biochemical, ADP Hunter fluorescence, primary and confirmatory, confirmation (AID 624330); type: functional
T5 sequence (Q9H0H5 whole entry): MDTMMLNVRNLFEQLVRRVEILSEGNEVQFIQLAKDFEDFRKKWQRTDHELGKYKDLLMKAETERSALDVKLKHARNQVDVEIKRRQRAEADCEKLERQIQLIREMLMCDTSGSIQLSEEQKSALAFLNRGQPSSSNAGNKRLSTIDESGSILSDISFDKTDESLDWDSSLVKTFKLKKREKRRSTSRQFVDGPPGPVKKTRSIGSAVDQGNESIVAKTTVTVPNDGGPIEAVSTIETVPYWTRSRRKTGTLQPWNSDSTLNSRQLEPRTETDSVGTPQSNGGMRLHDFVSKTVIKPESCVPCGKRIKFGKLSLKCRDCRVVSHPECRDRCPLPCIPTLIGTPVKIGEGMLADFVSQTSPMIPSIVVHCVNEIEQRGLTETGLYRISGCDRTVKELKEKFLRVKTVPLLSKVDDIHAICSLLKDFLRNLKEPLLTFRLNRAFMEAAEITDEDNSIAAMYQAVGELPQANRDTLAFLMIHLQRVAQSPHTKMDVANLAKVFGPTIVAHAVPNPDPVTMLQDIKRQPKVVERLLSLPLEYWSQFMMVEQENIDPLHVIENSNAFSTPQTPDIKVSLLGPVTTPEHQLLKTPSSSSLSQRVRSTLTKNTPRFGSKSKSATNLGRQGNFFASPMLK

COc1ccc(-c2nnc(NC(=O)c3cccs3)s2)c(OC)c1
IC50 [1]: 3.57 µM (active)

Cc1oc(-c2ccccc2Cl)nc1Cn1cccc1C1=NC(c2ccccc2)CO1 (stereo unspecified)
EC50 (Streptococcus): > 150 µM (not active) | EC50 (Streptokinase A): > 50 µM (not active) | CC50 (Vero): > 25 µM (active) | EC50 [2]: > 150 µM (not active)

CC(C)C(=O)N1CCN(c2nc3ccc(Cl)cc3s2)CC1
EC50 (cells [3]): > 350 µM (not active) | EC50 (cells [4]): > 350 µM (not active)

CCOc1ccc(/C=C2\SC(=S)N(CCCC(=O)NCCCN3CCOCC3)C2=O)cc1
EC50 (BJ [5]): 20.1 µM (active) | EC50 [6]: > 150 µM (not active) | EC50 (BJ [7]): > 150 µM (not active) | EC50 (BJ [8]): > 150 µM (not active) | IC50 [9]: > 80 µM (inactive)

Cc1cc(/C=C2\SC(=S)N=C2O)c(C)n1-c1cccc(O)c1
EC50 (Streptokinase A): > 150 µM (not active) | AC50 [10]: 8.8 µM (active)

Cc1cccc(NC(=O)CSc2nc3nc(O)cc(O)c3s2)c1
IC50 [1]: 15.9 µM (active)

O=C(CC1C(=O)NCCN1CCCc1ccccc1)NCCc1ccccc1Cl (stereo unspecified)
EC50 [11]: 1.51 µM (active) | IC50 (cells [12]): > 29.9 µM (inactive) | IC50 [13]: 5.21 µM (active) | EC50 (cells [14]): > 29.9 µM (inactive)

COc1ccccc1N1CN(CCc2ccccc2)CN=C1S
EC50 [11]: 1.28 µM (active) | IC50 (cells [12]): > 29.9 µM (inactive) | IC50 [13]: 6.11 µM (active) | EC50 (cells [14]): > 29.9 µM (inactive)

[O-][Cl+3]([O-])([O-])[O-].c1ccc(-c2ccc(-c3n(-c4ccccn4)c4ccccc4[n+]3-c3ccccn3)cc2)cc1
EC50 [15]: > 60 µM (not active) | EC50 [16]: 0.832 µM (active) | IC50 [17]: > 54 µM (not active)

Cc1nc([N+](=O)[O-])c(Sc2nc3cc([N+](=O)[O-])ccc3[nH]2)n1Cc1ccccc1
IC50 [9]: > 80 µM (inactive) | CC50 [18]: 12.6 µM (active)

O=C(c1cc(Br)ccc1Cl)N1CCC2(CC1)OCCO2
EC50 (cells [3]): > 350 µM (not active) | EC50 (cells [4]): 67 µM (active)

CSc1nnc(C)c(/C=C/Nc2ccc(F)cc2F)n1
IC50 [1]: 13.3 µM (active)

O=C(NCN1CCc2ccccc2C1)c1cnccn1
EC50 [11]: 2.14 µM (active) | IC50 (cells [12]): > 29.9 µM (inactive) | IC50 [13]: 8.03 µM (active) | EC50 (cells [14]): > 29.9 µM (inactive)

Cc1ccc(C(=O)CSc2nnc(COc3cc(C)cc(C)c3)o2)cc1
IC50 [9]: > 80 µM (inactive)

O=S(=O)(Cc1cc(Cl)nc(-c2ccncc2)n1)c1ccccc1
IC50 [17]: 6.12 µM (active)

CNC(=O)c1cccn(Cc2ccc(C(F)(F)F)cc2)c1=O
IC50 [9]: > 80 µM (inactive)

C[Se]C[C@@H](N)C(=O)O
IC50 [1]: 15 µM (active)

CCOC(=O)c1c(C)[nH]c(C)c1S(=O)(=O)N1c2ccccc2CC1C (stereo unspecified)
EC50 (cells [3]): > 350 µM (not active) | EC50 (cells [4]): > 350 µM (not active)

O=C(CSC(=S)N1CCCC1)NCCc1ccccc1
EC50 [11]: 1.96 µM (active) | IC50 (cells [12]): > 29.9 µM (inactive) | IC50 [13]: 1.19 µM (active) | EC50 (cells [14]): > 29.9 µM (inactive)

COC(=O)c1ccc(COc2ccccc2/C=N/NS(=O)(=O)c2ccccc2)cc1
EC50 (cells [3]): > 350 µM (not active) | EC50 (cells [4]): > 350 µM (not active)

O=C(N[C@H](C(=O)N1CCC[C@H]1C(=O)NCCc1ccccc1Cl)c1ccccc1)c1ccco1
EC50 [11]: 10.3 µM (inactive) | IC50 (cells [12]): > 29.9 µM (inactive) | IC50 [13]: > 29.9 µM (inactive) | EC50 (cells [14]): > 29.9 µM (inactive)

O=c1c2ccccc2[nH]c2ccc(O)cc12
IC50 (Large T antigen): 9.16 µM (active) | AC50 (Caspase-6): 17.7 µM (active)

OCCNc1nc(Nc2ccccc2)nc(Nc2ccccc2)n1
IC50 [17]: 24.3 µM (not active)

Cc1cc(-c2nnc(S)n2/N=C/c2c[nH]c3ccccc23)[nH]n1
IC50 (Large T antigen): 64 µM (active)

N/C(=N\N=C\c1ccc(O)c(O)c1)c1nonc1N
EC50 [19]: 1.74 µM (active) | IC50 (Large T antigen): 23.4 µM (active) | EC50 [20]: 1.67 µM (active)

Cc1cc(O)ccc1N/C=C1\CCCC1=O
IC50 [21]: 22.7 µM (active) | IC50 (Large T antigen): 29.8 µM (active)

CC(C)c1c(O)ccc2c1CC[C@H]1C(C)(C)CCC[C@]21C [TOTAROL]
AC50 [10]: 3.79 µM (active)
